These results are taken from BindingDB's records for doi:10.7270/Q2M32T6M (Vanderbilt Screening Center for GPCRs, Ion Channels and …, 2009).

Usually EC50 stands for the concentration needed to bring the measured effect to its halfway point. Read a low EC50 as an effect from little substance.

One test deals with T1, Solute carrier family 12 member 5 (Homo sapiens, UniProt Q9H2X9).
T1 sequence (Q9H2X9 whole entry): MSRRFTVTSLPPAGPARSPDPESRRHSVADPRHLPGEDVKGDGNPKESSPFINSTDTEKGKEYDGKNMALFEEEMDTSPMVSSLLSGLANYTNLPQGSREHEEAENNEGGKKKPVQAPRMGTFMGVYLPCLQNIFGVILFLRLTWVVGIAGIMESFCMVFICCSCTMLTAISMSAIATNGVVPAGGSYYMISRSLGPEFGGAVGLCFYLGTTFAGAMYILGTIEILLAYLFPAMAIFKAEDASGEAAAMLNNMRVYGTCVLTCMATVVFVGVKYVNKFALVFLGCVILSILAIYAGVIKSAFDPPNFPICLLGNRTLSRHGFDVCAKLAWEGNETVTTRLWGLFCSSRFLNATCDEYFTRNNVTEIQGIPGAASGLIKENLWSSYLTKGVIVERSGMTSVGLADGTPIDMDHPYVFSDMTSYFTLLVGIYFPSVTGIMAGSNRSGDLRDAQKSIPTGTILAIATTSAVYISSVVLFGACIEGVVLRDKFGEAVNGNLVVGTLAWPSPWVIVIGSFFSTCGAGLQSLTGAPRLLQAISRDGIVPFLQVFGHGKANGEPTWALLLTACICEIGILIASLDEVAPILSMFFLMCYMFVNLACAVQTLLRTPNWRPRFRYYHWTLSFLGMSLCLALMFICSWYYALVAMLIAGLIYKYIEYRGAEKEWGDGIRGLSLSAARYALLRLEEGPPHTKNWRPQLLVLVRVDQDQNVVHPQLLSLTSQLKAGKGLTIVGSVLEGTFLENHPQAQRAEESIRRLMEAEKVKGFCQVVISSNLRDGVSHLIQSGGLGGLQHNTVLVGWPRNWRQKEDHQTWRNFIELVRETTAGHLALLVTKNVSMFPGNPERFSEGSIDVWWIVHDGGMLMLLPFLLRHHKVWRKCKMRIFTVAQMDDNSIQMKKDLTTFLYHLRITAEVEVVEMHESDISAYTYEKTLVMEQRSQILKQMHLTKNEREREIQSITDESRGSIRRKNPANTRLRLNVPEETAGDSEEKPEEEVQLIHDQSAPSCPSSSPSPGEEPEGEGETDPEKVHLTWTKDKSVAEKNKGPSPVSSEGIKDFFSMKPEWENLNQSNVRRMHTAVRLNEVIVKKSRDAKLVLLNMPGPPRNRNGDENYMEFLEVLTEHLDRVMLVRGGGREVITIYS
Kind of test: concentration-response of KCC2 transport modulators – cell-based, HEK293 KCC2, FluoZin-2 fluorescence, dose response (AID 1736).
Conditions: not given
`Cc1ccc(-c2n[nH]c(=S)n2NC=CCc2ccccc2[N+](=O)[O-])cc1`: the EC50 was 1.28 µM. Turning to `Cc1[nH]c2ccccc2c1Cc1n[nH]c(=S)n1C`, the half-maximal effective concentration (EC50) turned out to be 31.5 µM. This EC50 is about 25-fold higher than that of the molecule before. `COc1cc(C=NN(C)c2ccccc2)ccc1O` showed an EC50 of 2.75 µM. On the same count and under the same terms, under `Cc1[nH]c2ccccc2c1Cc1nnc(S)o1` stands 0.744 µM. On the same count and under the same terms, under `O=c1[nH]c2c(s1)C(c1ccccc1)c1c(c(O)n(-c3ccccc3)c1O)S2` (centres undefined) stands 0.0458 µM; under `O=C(CSc1ccccc1C(=O)NCc1ccccc1)NC12CC3CC(CC(C3)C1)C2`, 6.49 µM; under `CC(C)N1C(=O)S/C(=C/c2ccccc2OCc2ccc(C(=O)O)cc2)C1=O`, 2.21 µM. As for `CC1CCCCN1C(=O)CSc1nnc(-c2c[nH]c3ccccc23)o1` (centres undefined), a half-maximal effect (EC50) was put at 15.2 µM. `NC1=NC[C@@H](Cc2ccc(O)cc2)N1CCc1cc(C(F)(F)F)cc(C(F)(F)F)c1` came in with an EC50 of 38.2 µM. Against the preceding molecule, the EC50 is about 2.5-fold higher. For `O=C1OC(c2ccc(O)cc2)(c2ccc(O)cc2)c2ccccc21`, the EC50 came out at 1.8 µM. Molecule `O=C(O)c1cc(-c2ccc(F)cc2F)ccc1O` returned an EC50 of 3.25 µM. `CCn1c(=O)n(CC)c2cc(S(=O)(=O)N3CCC(c4ccccc4)CC3)ccc21` [1,3-diethyl-5-(4-phenylpiperidin-1-yl)sulfonyl-benzimidazol-2-one]: the EC50 stood at 13.2 µM. Still for that read-out and setting: the figure for `O=C(CSc1nnc(C2CC2)n1Cc1ccccc1)c1cc2ccccc2o1` [1-(1-benzofuran-2-yl)-2-[(4-benzyl-5-cyclopropyl-1,2,4-triazol-3-yl)sulfanyl]ethanone] is 3.85 µM; for `O=C(CC(C(=O)N1CCc2ccccc21)n1ccnc1)N1CCc2ccccc2C1` (centres undefined) [1-(2,3-dihydroindol-1-yl)-4-(3,4-dihydro-1H-isoquinolin-2-yl)-2-(1-imidazolyl)butane-1,4-dione] it is 113 µM. In the case of `CC1Cc2ccccc2N1C(=O)CSc1nnc(CNc2ccccc2)o1` (centres undefined) [1-(2-Methyl-2,3-dihydro-indol-1-yl)-2-(5-phenylaminomethyl-[1,3,4]oxadiazol-2-ylsulfanyl)-ethanone], the EC50 was determined as 0.137 µM. `S=C(NCc1ccccc1Cl)Nc1ccccc1Cl` [1-(2-chlorobenzyl)-3-(2-chlorophenyl)thiourea]: the EC50 turned out to be 5.74 µM.

Molecule `CSc1ccccc1N=C(S)Nc1ccc(S(N)(=O)=O)cc1` [1-(2-methylsulfanylphenyl)-3-(4-sulfamoylphenyl)thiourea] registered an EC50 of 12.8 µM.

The molecule `C=CCn1c(Cc2cccs2)nnc1SCC(=O)c1ccc2ccccc2c1` [1-(2-naphthalenyl)-2-[[4-prop-2-enyl-5-(thiophen-2-ylmethyl)-1,2,4-triazol-3-yl]thio]ethanone] registered an EC50 of 6.12 µM. Same read-out and setting: under `O=C(CSc1nnc(-c2ccc(O)cc2)n1Cc1ccco1)N1CCc2ccccc2C1` [1-(3,4-Dihydro-1H-isoquinolin-2-yl)-2-[4-furan-2-ylmethyl-5-(4-hydroxy-phenyl)-4H-[1,2,4]triazol-3-ylsulfanyl]-ethanone] stands 5.59 µM; under `O=C(CSc1nnc(CNc2ccccc2)o1)N1CCCc2ccccc21` [1-(3,4-Dihydro-2H-quinolin-1-yl)-2-(5-phenylaminomethyl-[1,3,4]oxadiazol-2-ylsulfanyl)-ethanone], 1730 µM. `Cc1oc(-c2ccccc2)nc1C[S+]([O-])CC(=O)N1CCc2ccccc2C1` (centres undefined) [1-(3,4-dihydro-1H-isoquinolin-2-yl)-2-[(5-methyl-2-phenyl-1,3-oxazol-4-yl)methylsulfinyl]ethanone] yielded an EC50 of 3.68 µM. On to `Cc1cccc(-c2nc(C[S+]([O-])CC(=O)N3CCc4ccccc4C3)c(C)o2)c1` (centres undefined) [1-(3,4-dihydro-1H-isoquinolin-2-yl)-2-[[5-methyl-2-(3-methylphenyl)-1,3-oxazol-4-yl]methylsulfinyl]ethanone], for which the response was half-maximal at 13.7 µM (EC50).

`Cn1cc(C(=O)C(=O)N2CCCc3ccccc32)c2ccccc21` [1-(3,4-dihydro-2H-quinolin-1-yl)-2-(1-methyl-3-indolyl)ethane-1,2-dione] came in with an EC50 of 8.6 µM. Consider `O=C(CSc1ccc(-c2ccccc2)nn1)N1CCCc2ccccc21` [1-(3,4-dihydro-2H-quinolin-1-yl)-2-(6-phenylpyridazin-3-yl)sulfanyl-ethanone], for which the EC50 came out at 13.5 µM. Turning to `S=C(NN=Cc1cccc2ccccc12)Nc1cccc(Cl)c1` [1-(3-chlorophenyl)-3-(1-naphthalenylmethylideneamino)thiourea], the midpoint of the response, the EC50, lay at 8.29 µM. For the molecule `O=C(c1ccc(N2CCCCCC2)c([N+](=O)[O-])c1)N1CCc2ccccc21` [1-(4-azepan-1-yl-3-nitrobenzoyl)indoline], the EC50 is 7.56 µM.

As for `Cc1c(C(=O)NCCSCc2ccc(F)cc2)cnn1-c1ccc(Cl)cc1` [1-(4-chlorophenyl)-N-[2-[(4-fluorobenzyl)thio]ethyl]-5-methyl-pyrazole-4-carboxamide], the response was half-maximal at 471 µM (EC50). Take `O=C(CSc1nnc(Cc2ccccc2)o1)c1ccc(F)cc1` [1-(4-fluorophenyl)-2-[[5-(phenylmethyl)-1,3,4-oxadiazol-2-yl]sulfanyl]ethanone]: it took 2.86 µM to reach a half-maximal effect (EC50).

Turning to `COc1ccc(N2C(=S)N=C(Nc3cccc(C)c3)C23CCCCC3)cc1` [1-(4-methoxyphenyl)-4-(3-methylanilino)-1,3-diazaspiro[4.5]dec-3-ene-2-thione], the EC50 is 14.1 µM.

Molecule `Cc1ccc(S(=O)(=O)N2CCC(=O)N(C(COCc3ccccc3)Cc3ccccc3)CC2)cc1` (centres undefined) [1-(4-methylphenyl)sulfonyl-4-(1-phenyl-3-phenylmethoxy-propan-2-yl)-1,4-diazepan-5-one] registered an EC50 of 1.24 µM. Against the preceding molecule, the EC50 is about 11-fold lower. `S=C(NCc1cccnc1)Nc1ccc(Oc2ccccc2)cc1` [1-(4-phenoxyphenyl)-3-(3-pyridinylmethyl)thiourea] had an EC50 of 1.19 µM. On to `Cc1cccc(Nc2nnc(SCC(=O)c3ccc(Br)s3)s2)c1C` [1-(5-bromanylthiophen-2-yl)-2-[[5-[(2,3-dimethylphenyl)amino]-1,3,4-thiadiazol-2-yl]sulfanyl]ethanone], for which the concentration giving a half-maximal response (EC50) amounted to 4.28 µM. Still for that read-out and setting: the figure for `Cc1ccc(Nc2nnc(SCC(=O)c3ccc(Br)s3)s2)c(C)c1` [1-(5-bromanylthiophen-2-yl)-2-[[5-[(2,4-dimethylphenyl)amino]-1,3,4-thiadiazol-2-yl]sulfanyl]ethanone] is 1.22 µM.

Turning to `Cc1noc(C)c1S(=O)(=O)N1CCC(C(=O)N2CCN(c3ccc(F)cc3)CC2)CC1` [1-({1-[(3,5-dimethylisoxazol-4-yl)sulfonyl]piperidin-4-yl}carbonyl)-4-(4-fluorophenyl)piperazine], it took 23.1 µM to reach a half-maximal effect (EC50). Against the preceding molecule, the EC50 is about 19-fold higher. Consider `O=S(=O)(NCc1ccccc1)c1ccc(Cl)c(S(=O)(=O)NCc2ccccc2)c1` [1-N,3-N-dibenzyl-4-chlorobenzene-1,3-disulfonamide], for which the midpoint of the response, the EC50, lay at 1.7 µM. As to `Cc1nc2cc(C(F)(F)F)ccc2n1C1CCN(Cc2nnnn2Cc2ccc3c(c2)OCO3)CC1` [1-[1-(1-Benzo[1,3]dioxol-5-ylmethyl-1H-tetrazol-5-ylmethyl)-piperidin-4-yl]-2-methyl-5-trifluoromethyl-1H-benzoimidazole], the EC50 stood at 3.28 µM.

The test is the same for the next values; noted with them: inactive by the depositor's call.
Regarding `S=c1nc(-c2ccc3c(c2)CCO3)cc[nH]1`, the EC50 turned out to be 16.7 µM. Same read-out and setting: under `Cc1[nH][nH]c(=O)c1C(c1ccc(-c2ccc(Cl)c(Cl)c2)o1)c1c(C)[nH][nH]c1=O` stands 130 µM. Regarding `Cc1ccc(C=NNC(=S)Nc2cccc(S(=O)(=O)N(C)C)c2)o1`, the midpoint of the response, the EC50, lay at 16.6 µM. For `O=C(CSc1nnc(CNc2ccccc2)o1)c1ccc2c(c1)OCCO2` [1-(2,3-Dihydro-benzo[1,4]dioxin-6-yl)-2-(5-phenylaminomethyl-[1,3,4]oxadiazol-2-ylsulfanyl)-ethanone], the midpoint of the response, the EC50, lay at 2.09 µM. In turn, `S=C(Nc1ccccn1)Nc1ccccc1Cl` [1-(2-chlorophenyl)-3-(2-pyridinyl)thiourea] came in with a concentration giving a half-maximal response (EC50) of 1.97 µM.

For `Cc1nc(SCC(=O)N2CCc3ccccc3C2)c2c(C)c(C)sc2n1` [1-(3,4-Dihydro-1H-isoquinolin-2-yl)-2-(2,5,6-trimethyl-thieno[2,3-d]pyrimidin-4-ylsulfanyl)-ethanone], the response was half-maximal at 14.7 µM (EC50). `Cc1ccccc1-c1nc(CS(=O)(=O)CC(=O)N2CCc3ccccc3C2)c(C)o1` [1-(3,4-dihydro-1H-isoquinolin-2-yl)-2-[[5-methyl-2-(2-methylphenyl)-1,3-oxazol-4-yl]methylsulfonyl]ethanone]: the EC50 stood at 22.1 µM. Molecule `Cc1ccc(C(=O)CSc2nnc(COc3cccc4cccnc34)o2)cc1` [1-(4-methylphenyl)-2-[[5-(8-quinolinyloxymethyl)-1,3,4-oxadiazol-2-yl]thio]ethanone] displayed an EC50 of 8.12 µM. Against the preceding molecule, the EC50 is about 2.7-fold lower.
